In US20260217701A1, “SELECTIVE BET INHIBITORS AND USES THEREOF” (Tay Therapeutics Limited, priority 2022, published 2026):
Where “and” joins values, the source holds several entries; their conditions need not be identical. Identical values can stand only once.

System: imiquimod-induced psoriasis
Assay: Imiquimod-induced psoriasis model
Format: in vivo, mice
Parameters: Spleen Weight / Spleen Weight Ratio: unit not given here
Conditions: for PASI Scores / Number Licking / Number Licking + Scratching / Number Scratching / Distance Traveled / Number Rearings / Spleen Weight / Spleen Weight Ratio: individual animals; for Distance Traveled / Number Rearings: behavioral evaluation; for Spleen Weight / Spleen Weight Ratio: mice
Summary of the method: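 Psoriasis-like dermatitis induced in mice by daily dorsal imiquimod cream (Days 1–14); dosing with Compound A (5% DMSO/40% PEG-400/55% saline vehicle) began Day 8. Read-outs: summed 0–4 scores for erythema, induration and peeling daily to Day 15, plus terminal spleen ratio, behaviour and serum cytokines.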

[1] = IMI-psoriasis model, behavioral evaluation D15, 1 mg/kg
[2] = IMI-psoriasis model, behavioral evaluation D15, 3 mg/kg
[3] = IMI-psoriasis model, behavioral evaluation D15, 10 mg/kg

Q: With `COCCn1cc(-c2ccccc2)c(-c2cn(C)c(=O)c3[nH]c(-c4cnn(C(F)(F)F)c4)cc23)cc1=O` [Compound B, 4-(1-(2-methoxyethyl)-2-oxo-5-phenyl-1,2-dihydropyridin-4-yl)-6-methyl-2-(1-(trifluoromethyl)-1H-pyrazol-4-yl)-1,6-dihydro-7H-pyrrolo[2,3-c]pyridin-7-one] as the compound, how does the “PASI Scores” value (IMI + Compound B 1 mg/kg, D13) read?
A: 4 (2×) and 5 (3×) and 8 and 7 (2×)

Q: And the “PASI Scores” value (IMI + Compound B 1 mg/kg, D14)?
A: 4 (2×) and 7 (2×) and 6 (3×) and 5

Q: What about the “PASI Scores” value (IMI + Compound B 1 mg/kg, D15) of the same compound?
A: 5 (3×) and 7 and 4 and 6 (2×) and 3

Q: What about the “PASI Scores” value (IMI + Compound B 3 mg/kg, D8 (day treatment started)) of the same compound?
A: 8 and 7 (4×)

Q: What about the “PASI Scores” value (IMI + Compound B 3 mg/kg, D9) of the same compound?
A: 7 and 8 and 6 (3×)

Q: What about the “PASI Scores” value (IMI + Compound B 3 mg/kg, D10) of the same compound?
A: 6 (2×) and 8 and 5 and 4

Q: And the “PASI Scores” value (IMI + Compound B 3 mg/kg, D11)?
A: 5 (4×) and 6

Q: What about the “PASI Scores” value (IMI + Compound B 3 mg/kg, D12) of the same compound?
A: 4 and 6 (3×)

Q: And the “PASI Scores” value (IMI + Compound B 3 mg/kg, D13)?
A: 6 and 4 (3×)

Q: What about the “PASI Scores” value (IMI + Compound B 3 mg/kg, D14) of the same compound?
A: 6 and 4 and 5 and 3

Q: What about the “PASI Scores” value (IMI + Compound B 3 mg/kg, D15) of the same compound?
A: 4 and 5 and 3 and 1

Q: What about the “Use Enrichment D1” value (IMI-psoriasis model, D1, 1 mg/kg, per cage (two animals)) of the same compound?
A: 4.0

Q: What about the “Use Enrichment D1” value (IMI-psoriasis model, D1, 3 mg/kg, per cage (two animals)) of the same compound?
A: 4.0

Q: What about the “Use Enrichment D1” value (IMI-psoriasis model, D1, 10 mg/kg, per cage (two animals)) of the same compound?
A: 4.0

Q: And the “Use Enrichment D8” value (IMI-psoriasis model, D8, 1 mg/kg, per cage (two animals))?
A: 1.0 and 1.5

Q: And the “Use Enrichment D9” value (IMI-psoriasis model, D9, 1 mg/kg, per cage (two animals))?
A: 1.5 and 2.0 and 1.0

Q: What about the “Use Enrichment D10” value (IMI-psoriasis model, D10, 1 mg/kg, per cage (two animals)) of the same compound?
A: 2.5 and 1.5 and 3.0

Q: And the “Use Enrichment D11” value (IMI-psoriasis model, D11, 1 mg/kg, per cage (two animals))?
A: 3.0 and 3.5 and 2.5

Q: What about the “Use Enrichment D11” value (IMI-psoriasis model, D11, 3 mg/kg, per cage (two animals)) of the same compound?
A: 2.0 and 4.0 and 2.5

Q: And the “Use Enrichment D12” value (IMI-psoriasis model, D12, 1 mg/kg, per cage (two animals))?
A: 1.5 and 1.0

Q: What about the “Use Enrichment D13” value (IMI-psoriasis model, D13, 10 mg/kg, per cage (two animals)) of the same compound?
A: 4.0 and 2.5

Q: And the “Use Enrichment D14” value (IMI-psoriasis model, D14, 1 mg/kg, per cage (two animals))?
A: 2.5 and 2.0 and 1.5

Q: And the “Use Enrichment D14” value (IMI-psoriasis model, D14, 3 mg/kg, per cage (two animals))?
A: 3.0 and 4.0 and 3.5 and 2.5

Q: What about the “Use Enrichment D14” value (IMI-psoriasis model, D14, 10 mg/kg, per cage (two animals)) of the same compound?
A: 4.0

Q: What about the “Use Enrichment D15” value (IMI-psoriasis model, D15, 3 mg/kg, per cage (two animals)) of the same compound?
A: 3.5 and 4.0 and 3.0

Q: What about the “Use Enrichment D15” value (IMI-psoriasis model, D15, 10 mg/kg, per cage (two animals)) of the same compound?
A: 4.0

Q: What about the “Number Licking” value [1] of the same compound?
A: 3 (4×) and 2 and 7 and 4 and 5

Q: And the “Number Licking + Scratching” value [1]?
A: 5 (3×) and 8 and 3 and 4 and 7 and 6

Q: What about the “Number Scratching” value [1] of the same compound?
A: 2 (2×) and 5 and 0 (3×) and 1 and 3

Q: And the “Number Licking” value [2]?
A: 8 (2×) and 9 and 3 (4×)

Q: And the “Number Licking + Scratching” value [2]?
A: 8 and 11 and 4 and 3 (2×) and 5 and 13

Q: What about the “Number Scratching” value [2] of the same compound?
A: 0 (3×) and 2 (2×) and 1 and 5

Q: What about the “Number Licking” value [3] of the same compound?
A: 6 and 4 and 2 (4×) and 3

Q: What about the “Number Licking + Scratching” value [3] of the same compound?
A: 6 and 5 and 2 (2×) and 3 (3×)

Q: What about the “Number Scratching” value [3] of the same compound?
A: 0 (4×) and 1 (3×)

Q: And the “Distance Traveled” value (IMI-psoriasis model, 1 mg/kg)?
A: 15 m and 7 m and 11 m and 8 m and 9 m and 13 m and 14 m (2×)

Q: What about the “Number Rearings” value (IMI-psoriasis model, 1 mg/kg) of the same compound?
A: 44 and 23 and 47 and 19 and 29 and 27 and 87 and 49

Q: And the “Distance Traveled” value (IMI-psoriasis model, 3 mg/kg)?
A: 17 m and 9 m and 23 m and 12 m and 15 m and 11 m and 13 m

Q: And the “Number Rearings” value (IMI-psoriasis model, 3 mg/kg)?
A: 27 and 38 and 121 and 47 and 31 and 60 and 57

Q: What about the “Distance Traveled” value (IMI-psoriasis model, 10 mg/kg) of the same compound?
A: 15 m and 14 m and 16 m and 7 m (3×) and 6 m

Q: And the “Number Rearings” value (IMI-psoriasis model, 10 mg/kg)?
A: 44 (2×) and 71 and 6 and 11 and 1 and 13

Q: And the “Use Enrichment Mean D1-D8” value (IMI-psoriasis model, mean D1-D8, 1 mg/kg, per cage (two animals))?
A: 2.50 and 2.75

Q: And the “Use Enrichment Mean D1-D8” value (IMI-psoriasis model, mean D1-D8, 3 mg/kg, per cage (two animals))?
A: 2.50 and 2.75 and 2.25

Q: And the “Use Enrichment Mean D1-D8” value (IMI-psoriasis model, mean D1-D8, 10 mg/kg, per cage (two animals))?
A: 2.50 and 2.75 and 2.00 and 3.00

Q: What about the “Use Enrichment Mean D8-D15” value (IMI-psoriasis model, mean D8-D15, 1 mg/kg, per cage (two animals)) of the same compound?
A: 2.57 and 2.07 and 2.43 and 2.14

Q: And the “Use Enrichment Mean D8-D15” value (IMI-psoriasis model, mean D8-D15, 10 mg/kg, per cage (two animals))?
A: 3.50 and 2.29 and 1.93 and 3.07

Q: What about the “Spleen Weight” value (IMI-psoriasis model, 1 mg/kg) of the same compound?
A: 255.35 and 280.52 and 235.85 and 298.12 and 227.47 and 255.31 and 244.77 and 316.12

Q: What about the “Spleen Weight Ratio” value (IMI-psoriasis model, 1 mg/kg) of the same compound?
A: 1562.73 and 1912.20 and 1309.55 and 1793.74 and 1315.62 and 1552.98 and 1518.42 and 1820.97

Q: And the “Spleen Weight” value (IMI-psoriasis model, 3 mg/kg)?
A: 244.98 and 212.34 and 270.73 and 183.55 and 232.29 and 224.28 and 206.85 and 220.98

Q: And the “Spleen Weight Ratio” value (IMI-psoriasis model, 3 mg/kg)?
A: 1777.79 and 1257.94 and 1699.50 and 1016.90 and 1343.49 and 1313.11 and 1297.68 and 1278.08

Q: And the “Spleen Weight” value (IMI-psoriasis model, 10 mg/kg)?
A: 184.80 and 169.45 and 184.96 and 119.62 and 101.24 and 156.25 and 130.42 and 159.58
